Assay results as given in ChEMBL document CHEMBL1201862, “PubChem BioAssay data set” (2004).
Several values for one entry are separate records, joined by “and”; a condition that tells them apart may be missing. Equal values may be shown once. Activity calls are given as the source filed them.

How the values were obtained:
[1] = target: T1, Heat shock factor protein 1 (Mus musculus, UniProt P38532); assay: decrease of HSF1-responsive luciferase luminescence – cell-based, NIH3T3, dose retest, confirmation (AID 2382); assay type: functional;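 further: NIH3T3 fibroblasts with HSF1-driven luciferase reporter stressed by proteasome inhibitor MG132; luminescence from HSF1-driven luciferase expression after 8 hours of MG132 stress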
T1 sequence (P38532 whole entry): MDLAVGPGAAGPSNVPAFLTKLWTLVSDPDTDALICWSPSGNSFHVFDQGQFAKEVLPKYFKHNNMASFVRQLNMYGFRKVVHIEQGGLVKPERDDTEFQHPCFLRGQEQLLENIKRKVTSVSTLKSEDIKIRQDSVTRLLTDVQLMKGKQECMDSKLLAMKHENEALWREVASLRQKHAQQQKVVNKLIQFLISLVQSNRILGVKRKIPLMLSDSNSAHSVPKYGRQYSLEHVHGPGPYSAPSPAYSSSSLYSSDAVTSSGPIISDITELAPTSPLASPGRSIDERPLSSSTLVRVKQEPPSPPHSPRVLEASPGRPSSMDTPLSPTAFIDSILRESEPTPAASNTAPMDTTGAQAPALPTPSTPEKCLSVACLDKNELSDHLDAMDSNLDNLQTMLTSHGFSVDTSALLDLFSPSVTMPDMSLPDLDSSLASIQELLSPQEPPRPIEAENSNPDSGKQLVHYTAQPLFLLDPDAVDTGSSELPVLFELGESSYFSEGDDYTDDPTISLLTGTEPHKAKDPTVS

Cytochrome P450 1A2 = target: T2, Cytochrome P450 1A2 (Homo sapiens, UniProt P05177);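 further: PubChem cytochrome P450 panel assay, CYP1A2 panel member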
T2 sequence (P05177 whole entry): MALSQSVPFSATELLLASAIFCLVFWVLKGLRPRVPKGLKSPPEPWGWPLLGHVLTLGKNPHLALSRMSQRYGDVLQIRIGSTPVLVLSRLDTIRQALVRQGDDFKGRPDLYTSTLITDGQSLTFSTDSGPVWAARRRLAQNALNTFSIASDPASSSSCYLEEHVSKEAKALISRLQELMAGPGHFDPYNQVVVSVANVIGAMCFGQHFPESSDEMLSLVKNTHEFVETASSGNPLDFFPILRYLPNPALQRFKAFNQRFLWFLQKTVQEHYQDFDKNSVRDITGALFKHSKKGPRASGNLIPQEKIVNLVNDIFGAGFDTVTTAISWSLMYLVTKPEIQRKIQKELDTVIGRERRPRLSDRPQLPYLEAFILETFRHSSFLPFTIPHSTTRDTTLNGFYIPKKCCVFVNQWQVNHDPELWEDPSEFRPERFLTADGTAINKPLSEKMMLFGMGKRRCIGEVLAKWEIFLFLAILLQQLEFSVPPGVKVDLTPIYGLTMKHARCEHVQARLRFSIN

[2] = Trypanosoma cruzi growth suppression in host cells – NIH3T3 host cells, beta-gal luminescence, confirmation (AID 2044); assay type: functional, cell-based;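 further: intracellular parasites grown in NIH/3T3 mouse fibroblasts as host cells; luminescent beta-galactosidase reporter signal from transgenic T. cruzi replicating inside host cells; inhibitors lower the luminescence signal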
[3] = NIH3T3 cell viability loss – ATP luminescence, mouse fibroblasts, counter-screen, dose response (AID 2010); assay type: functional, cell-based;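 further: cells exposed to compound for about 90 hours before reading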
Cytochrome P450 2C19 = Cytochrome P450 2C19 (Homo sapiens, UniProt P33261); assay: Cytochrome panel assay with activity outcomes. Panel member name: p450-cyp2c19 Compounds with AC50 equal or less than 10 uM are considered active; assay type: functional
Cytochrome P450 2C19, sequence (P33261 whole entry): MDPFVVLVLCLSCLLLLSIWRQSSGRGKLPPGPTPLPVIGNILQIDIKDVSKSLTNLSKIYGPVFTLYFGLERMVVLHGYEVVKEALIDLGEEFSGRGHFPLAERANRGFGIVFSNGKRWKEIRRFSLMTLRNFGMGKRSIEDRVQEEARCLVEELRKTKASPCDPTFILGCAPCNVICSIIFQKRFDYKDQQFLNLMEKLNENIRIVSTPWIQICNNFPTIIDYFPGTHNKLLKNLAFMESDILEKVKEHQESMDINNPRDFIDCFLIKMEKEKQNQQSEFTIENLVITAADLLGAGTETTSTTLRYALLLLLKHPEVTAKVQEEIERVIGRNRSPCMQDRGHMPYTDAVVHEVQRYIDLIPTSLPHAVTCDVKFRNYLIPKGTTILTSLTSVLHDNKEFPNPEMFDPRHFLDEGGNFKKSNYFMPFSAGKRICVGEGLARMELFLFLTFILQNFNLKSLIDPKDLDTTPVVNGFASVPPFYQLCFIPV

[4] = tested on: Streptococcus sp. 'group A'; assay: Streptococcus pyogenes SK(-)GAS viability under kanamycin – luminescence, BacTiterGlo, confirmation, counter-screen for streptokinase expression inhibitor project, dose response (AID 1900); assay type: functional, organism-based
Streptococcus = assay: GAS UMAA2166 growth inhibition – luminescence, BacTiterGlo, counter-screen for streptokinase expression inhibitor project, dose response (AID 1915); assay type: functional, organism-based;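 further: potency for reduction of bacterial viability or growth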
[5] = luciferase reporter signal suppression in cells – H4 neuroglioma cells, luminescence, dose response (AID 1990); assay type: functional, cell-based
[6] = Luminescence Cell-Based Dose Response HTS to Identify Inhibitors of 5'UTR Stem-Loop Driven Prion Protein mRNA Translation in H4 Neuroglioblastoma Cells. [Related pubchem assays: 1827 (Project Summary), 1813 (Primary HTS)]; assay type: functional
[7] = alpha-synuclein stem-loop luciferase translation blockers – H4 neuroglioma cells, luminescence, confirmation (AID 1988); assay type: functional, cell-based
INS1 = assay: INS-1E survival protection against cytokine death – cell-based, luminescence, retest, dose response (AID 449756); assay type: functional; details: Rattus norvegicus;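 further: cell death triggered by IL-1 beta plus TNF-alpha plus IFN-gamma mixture; protective hits raise ATP signal compared with cytokine alone wells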

CN1CCN(C(=O)/C(=C\c2cccs2)NC(=O)c2ccco2)CC1
EC50 [1]: > 195 µM (not active)

COc1cccc(NC(=O)c2oc3ccccc3c2NC(=O)c2ccc3c(c2)OCO3)c1
AC50 (Cytochrome P450 1A2): 6.31 µM (inconclusive)

C[C@@H](C(=O)NCc1ccccn1)[C@H]1C[C@]1(C)[C@H](NC(=O)OCc1ccccc1)c1ccccc1
AC50 (Cytochrome P450 1A2): 25.1 µM (inconclusive)

O=C(Cn1cnc([N+](=O)[O-])c1)Nc1cc(Oc2ccc(Cl)cc2Cl)cc([N+](=O)[O-])c1
EC50 [2]: 1.11 µM (active)
EC50 [3]: > 60 µM (not active)

CCOC(=O)c1ccc(Cl)c(NC(=O)c2ccc(-c3ccccc3)cc2)c1
AC50 (Cytochrome P450 1A2): 28.2 µM (inconclusive)

CCN(c1ccccc1)c1cc(NC)[n+](C)c(C)n1
AC50 (Cytochrome P450 1A2): 31.6 µM (inconclusive)

Cc1ccc(C(=N)NOC(=O)CN(C)S(=O)(=O)c2ccc(C)cc2)cc1
EC50 [1]: > 195 µM (not active)

COC(=O)[C@@]1(Cc2ccc(OC)cc2)[C@H]2c3cc(C(=O)N4CCCC4)n(CCc4ccccn4)c3C[C@H]2CN1C(=O)c1ccccc1
AC50 (Cytochrome P450 2C19; read-out: AC50): 25.1 µM (inconclusive)

Cc1ccc(OCCCCNC2CCCCC2)c(C)c1
EC50 [2]: 1.62 µM (active)
EC50 [3]: > 60 µM (not active)

CCc1ccc(CN2CCCC(C(=O)c3sccc3C)C2)o1 (configuration not stated)
EC50 [2]: 0.159 µM (active)
EC50 [3]: 16.9 µM (active)

CCOc1ccc(-n2c(=O)[nH]cc(C(=O)N3CCCc4ccccc43)c2=O)cc1
AC50 (Cytochrome P450 2C19; read-out: AC50): 5.01 µM (inconclusive)

CN1CCC(=C2c3ccccc3CC(=O)c3sccc32)CC1 [KETOTIFEN]
AC50 (Cytochrome P450 2C19): inconclusive

O=C1SCC(c2ccccc2)=NN1Cc1ccccc1
EC50 [1]: > 195 µM (not active)

COc1cc(C(=O)Nc2ccc(-c3nc4cc(C)ccc4o3)c(O)c2)cc(OC)c1OC
EC50 [4]: 2.35 µM (active)
EC50 (Streptococcus): 1.85 µM (active)

O=C(O)c1ccc(N2C(=O)CC(N3CCN(c4cccc(C(F)(F)F)c4)CC3)C2=O)cc1 (configuration not stated)
EC50 [1]: > 195 µM (not active)

OC(CNCCc1ccccc1)COc1ccc(OCC(O)CNCCc2ccccc2)cc1 (configuration not stated)
EC50 [5]: 9.08 µM (active)
EC50 [6]: > 120 µM (not active)
EC50 [7]: 8.27 µM (active)

COc1cccc(C2C(C(=O)c3cc4ccccc4o3)=C(O)C(=O)N2c2cc(C)on2)c1 (configuration not stated)
EC50 [1]: > 195 µM (not active)

O=C(Nc1cc2ccccc2oc1=O)C1CCCCC1
AC50 (Cytochrome P450 2C19; read-out: AC50): 28.2 µM (inconclusive)
AC50 (Cytochrome P450 1A2): 2.51 µM (inconclusive)

CC1(C)Oc2ccc(C#N)cc2[C@H](N2CCCC2=O)[C@H]1O [(-)-CROMAKALIM]
AC50 (Cytochrome P450 1A2): 10 µM (inconclusive) and 20 µM (inconclusive)

Cc1cccc(NC(=O)Cn2c(=O)n(Cc3ccco3)c(=N)c3c4c(sc32)COC(C)(C)C4)c1
EC50 [1]: > 195 µM (not active)

Fc1cc(F)c2nc(Nc3nc4c(F)cccc4s3)sc2c1
AC50 (INS1): 4.34 µM (active)

COC(=O)[C@@H]1C[C@H]1[C@@H](NC(=O)c1cc(C)nn1C)c1ccccc1
AC50 (Cytochrome P450 2C19; read-out: AC50): 39.8 µM (inconclusive)

Cc1ccc(-n2cc(CN3CCC(O)(c4ccccn4)CC3)c(-c3ccc(F)cc3)n2)cc1
EC50 [2]: 3.61 µM (active)
EC50 [3]: 9.48 µM (active)

N=C(N)SCCSC(=N)N
AC50 (Cytochrome P450 1A2): 2 µM (inconclusive)

Cc1ccccc1Cn1ccc(NC(=O)c2cnn3c(C(F)(F)F)cc(-c4ccco4)nc23)n1
EC50 [1]: 19.1 µM (active)

O=S(=O)(c1ccc(Cl)cc1)N1CCCCC1c1cccnc1 (configuration not stated)
EC50 [2]: 0.838 µM (active)
EC50 [3]: > 60 µM (not active)

COc1ccc(-c2nc(CN3CCCCC3c3cccnc3)c(C)o2)c(F)c1 (configuration not stated)
EC50 [2]: 1.45 µM (active)
EC50 [3]: > 60 µM (inconclusive)
